Measured values from patent publication US6423689B1, “Peptidyl calcium channel blockers” (Warner-Lambert Company, priority 1997, dated 2002).

Experiments:
[1] = target: T1, N-type Ca2+ channels in superior cervical ganglion (SCG) neurons (Rattus norvegicus, UniProt Q02294); assay: Whole-cell voltage clamp, N-type Ca2+ current in SCG neurons; type: cell-based; settings: for IC50: read-out: Inhibition of N-type Ca2+ Current IC50
T1 construct: from tissue
Procedure, shortened: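 Whole-cell voltage clamp of acutely trypsin-dissociated rat SCG neurons, with TEA/choline external solution (2 mM Ca2+) and Cs-methanesulfonate pipette solution. Currents evoked by 150 ms steps to +20 mV from −65 to −55 mV holding, every 40 s; compounds applied locally, effect as % inhibition of control amplitude.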

[2] = test system: Na+ channels in superior cervical ganglion (SCG) neurons; assay: Whole-cell voltage clamp, Na+ current in SCG neurons; type: cell-based, rat
Procedure, shortened: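 Percent inhibition of control amplitude at steady-state block is the read-out: peak inward Na+ current at 0 mV, sustained K+ current at +50 mV, 35 msec steps every 10 sec from −65 to −55 mV. Recordings used whole-cell clamp of trypsin-dissociated SCG neurons, pH 7.4 external and pipette solutions, compounds applied by local perfusion.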

[3] = target: T2, L-type Ca2+ channels in A10 cells (Rattus norvegicus, UniProt P22002); assay: Inhibition of L-type calcium flux in A10 cells (FLIPR); type: cell-based
T2 construct: which endogenously expresses L-type calcium channels; host or cells: A10 rat aortic smooth muscle cells
T2 sequence (P22002 whole entry): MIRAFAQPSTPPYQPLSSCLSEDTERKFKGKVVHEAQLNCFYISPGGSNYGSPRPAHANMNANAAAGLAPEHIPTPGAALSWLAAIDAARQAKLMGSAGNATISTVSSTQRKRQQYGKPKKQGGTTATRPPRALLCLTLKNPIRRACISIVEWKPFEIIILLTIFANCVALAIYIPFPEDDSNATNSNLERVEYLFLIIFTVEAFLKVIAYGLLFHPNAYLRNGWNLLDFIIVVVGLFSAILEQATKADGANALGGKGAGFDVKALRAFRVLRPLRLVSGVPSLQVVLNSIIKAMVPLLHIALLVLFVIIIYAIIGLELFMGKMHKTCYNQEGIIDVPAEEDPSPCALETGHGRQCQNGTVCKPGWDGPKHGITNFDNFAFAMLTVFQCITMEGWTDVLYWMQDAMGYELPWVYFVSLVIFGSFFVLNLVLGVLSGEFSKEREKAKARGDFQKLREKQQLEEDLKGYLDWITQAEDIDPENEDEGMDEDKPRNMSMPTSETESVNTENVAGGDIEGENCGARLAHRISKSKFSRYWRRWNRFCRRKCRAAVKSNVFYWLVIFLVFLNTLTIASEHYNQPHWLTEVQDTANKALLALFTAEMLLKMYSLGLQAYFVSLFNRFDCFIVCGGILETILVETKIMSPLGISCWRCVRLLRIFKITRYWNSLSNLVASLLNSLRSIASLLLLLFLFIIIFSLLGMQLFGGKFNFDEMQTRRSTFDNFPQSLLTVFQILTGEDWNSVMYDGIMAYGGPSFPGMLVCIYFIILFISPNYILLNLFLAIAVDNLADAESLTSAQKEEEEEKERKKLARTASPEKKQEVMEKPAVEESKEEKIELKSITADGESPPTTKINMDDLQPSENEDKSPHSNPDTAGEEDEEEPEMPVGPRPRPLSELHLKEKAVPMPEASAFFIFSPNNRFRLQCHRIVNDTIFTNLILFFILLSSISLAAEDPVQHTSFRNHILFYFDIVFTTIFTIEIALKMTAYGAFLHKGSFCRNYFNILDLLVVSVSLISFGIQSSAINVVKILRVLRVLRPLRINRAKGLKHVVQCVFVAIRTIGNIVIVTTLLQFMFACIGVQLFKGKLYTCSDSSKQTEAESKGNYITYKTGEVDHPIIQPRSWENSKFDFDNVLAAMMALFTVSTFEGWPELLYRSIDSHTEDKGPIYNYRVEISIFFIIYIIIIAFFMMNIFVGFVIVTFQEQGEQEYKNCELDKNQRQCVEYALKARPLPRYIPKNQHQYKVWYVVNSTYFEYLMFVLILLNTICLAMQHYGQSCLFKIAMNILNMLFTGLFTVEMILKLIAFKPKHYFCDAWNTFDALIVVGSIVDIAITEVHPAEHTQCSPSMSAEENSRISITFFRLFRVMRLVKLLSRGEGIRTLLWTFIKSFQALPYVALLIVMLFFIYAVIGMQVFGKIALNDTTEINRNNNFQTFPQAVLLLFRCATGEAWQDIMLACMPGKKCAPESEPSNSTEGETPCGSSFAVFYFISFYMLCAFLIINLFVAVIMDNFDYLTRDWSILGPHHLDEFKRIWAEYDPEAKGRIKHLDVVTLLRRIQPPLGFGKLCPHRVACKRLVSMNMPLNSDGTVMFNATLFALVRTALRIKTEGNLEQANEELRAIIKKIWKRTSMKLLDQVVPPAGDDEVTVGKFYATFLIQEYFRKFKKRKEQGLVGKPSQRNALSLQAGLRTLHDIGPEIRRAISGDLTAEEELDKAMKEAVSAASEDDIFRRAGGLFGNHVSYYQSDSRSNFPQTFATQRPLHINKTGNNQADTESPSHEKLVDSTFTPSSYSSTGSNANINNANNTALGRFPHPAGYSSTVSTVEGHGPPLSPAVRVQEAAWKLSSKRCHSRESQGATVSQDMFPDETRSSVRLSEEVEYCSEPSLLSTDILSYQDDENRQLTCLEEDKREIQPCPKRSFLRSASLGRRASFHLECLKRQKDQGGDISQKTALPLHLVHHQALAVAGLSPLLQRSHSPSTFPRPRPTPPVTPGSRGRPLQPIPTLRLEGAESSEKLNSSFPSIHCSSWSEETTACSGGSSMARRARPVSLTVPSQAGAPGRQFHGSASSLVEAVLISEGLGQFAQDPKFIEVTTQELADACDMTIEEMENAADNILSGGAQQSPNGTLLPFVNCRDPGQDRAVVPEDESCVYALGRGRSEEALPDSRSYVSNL
T2 sequence (P54290 25-944 partner limits assumed): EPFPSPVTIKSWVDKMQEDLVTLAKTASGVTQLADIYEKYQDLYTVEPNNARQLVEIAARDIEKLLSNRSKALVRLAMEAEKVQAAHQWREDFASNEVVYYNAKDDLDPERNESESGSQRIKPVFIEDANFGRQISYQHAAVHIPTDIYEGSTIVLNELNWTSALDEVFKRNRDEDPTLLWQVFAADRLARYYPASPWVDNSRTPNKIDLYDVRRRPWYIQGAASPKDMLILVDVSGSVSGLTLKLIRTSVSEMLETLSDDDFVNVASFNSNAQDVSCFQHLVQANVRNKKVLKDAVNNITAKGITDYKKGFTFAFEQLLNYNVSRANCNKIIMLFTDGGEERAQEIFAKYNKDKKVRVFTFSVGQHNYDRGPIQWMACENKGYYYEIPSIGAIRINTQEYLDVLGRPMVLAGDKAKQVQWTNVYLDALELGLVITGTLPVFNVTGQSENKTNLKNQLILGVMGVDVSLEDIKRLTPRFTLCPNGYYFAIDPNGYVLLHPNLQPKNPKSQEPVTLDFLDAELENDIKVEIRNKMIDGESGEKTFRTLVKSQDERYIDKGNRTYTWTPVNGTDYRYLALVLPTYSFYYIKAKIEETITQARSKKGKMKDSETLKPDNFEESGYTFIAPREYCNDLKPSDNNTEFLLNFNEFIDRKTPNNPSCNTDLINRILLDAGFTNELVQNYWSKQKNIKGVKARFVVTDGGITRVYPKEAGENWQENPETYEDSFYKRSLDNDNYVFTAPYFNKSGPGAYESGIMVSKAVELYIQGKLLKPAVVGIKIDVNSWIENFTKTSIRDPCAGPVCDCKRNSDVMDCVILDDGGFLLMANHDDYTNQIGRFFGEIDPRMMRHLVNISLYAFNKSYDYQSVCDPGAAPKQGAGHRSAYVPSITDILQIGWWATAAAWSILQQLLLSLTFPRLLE
T2 sequence (P54290 945-1091 partner limits assumed): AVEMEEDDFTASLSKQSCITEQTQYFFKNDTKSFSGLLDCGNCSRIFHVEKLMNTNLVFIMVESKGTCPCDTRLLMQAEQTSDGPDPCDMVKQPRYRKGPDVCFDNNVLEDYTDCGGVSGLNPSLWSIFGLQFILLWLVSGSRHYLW
T2 sequence (P54287 whole entry partner): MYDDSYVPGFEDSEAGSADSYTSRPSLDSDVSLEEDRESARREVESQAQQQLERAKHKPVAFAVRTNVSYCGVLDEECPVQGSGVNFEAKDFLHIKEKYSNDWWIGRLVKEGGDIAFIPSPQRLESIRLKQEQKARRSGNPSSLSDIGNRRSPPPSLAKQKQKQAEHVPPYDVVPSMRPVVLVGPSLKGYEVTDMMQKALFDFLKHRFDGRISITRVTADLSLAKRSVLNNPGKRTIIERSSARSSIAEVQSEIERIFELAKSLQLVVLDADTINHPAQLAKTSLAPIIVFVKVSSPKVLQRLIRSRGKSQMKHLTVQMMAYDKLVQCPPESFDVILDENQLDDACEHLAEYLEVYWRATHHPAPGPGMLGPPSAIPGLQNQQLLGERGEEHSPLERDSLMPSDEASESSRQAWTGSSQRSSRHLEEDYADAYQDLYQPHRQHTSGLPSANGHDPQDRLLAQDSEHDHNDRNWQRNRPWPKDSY

Compound | Inhibition of N-type Ca2+ Current, % Inhibition at 10 μM ([1]; 10 μM) [%] | IC50 [1] [nM] | Inhibition of Na+ Current, % Inhibition at 10 μM [2] [%] | IC50 [3] [nM] | inhibition at 10 µM ([1]; 10 μM) [%] | IC50 ([2]; read-out: Inhibition of Na+ Current IC50) [nM]
CC(C)(C)OC(=O)[C@H](Cc1ccc(OCc2ccccc2)cc1)NC(=O)CNC(=O)N1CCCCCC1 (stereo in doubt) [Example 8, [S-(R*,R*)]-2-{2-[(Azepane-1-carbonyl)-amino]-acetylamino}-3-(4-benzyloxy-phenyl)-propionic acid tert-butyl ester] | 86 | 1920 | 43 | 180 | – | –
CC(C)C[C@H](NC(=O)N1CCCCCC1)C(=O)N[C@@H](Cc1ccc(OCc2ccccc2)cc1)C(=O)OC(C)(C)C [Example 1] | – | 1270 | 28 | 1720 | 68 | 14000
CC(C)(C)OC(=O)[C@H](Cc1ccc(OCc2ccccc2)cc1)NC(=O)[C@H](Cc1ccccc1)NC(=O)N1CCCCCC1 [Example 16] | – | – | 38 | 280 | 19 | –
CC(C)C[C@H](NC(=O)N1CCCCCC1)C(=O)N[C@@H](Cc1ccc(OCc2ccccc2)cc1)C(N)=O [Example 21, [S-(R*,R*)]-Azepane-1-carboxylic acid {1-[2-(4-benzyloxy-phenyl)-1-carbamoyl-ethylcarbamoyl]-3-methyl-butyl}-amide] | – | – | 16 | 1600 | 45 | –
CC(C)C[C@H](NC(=O)N1CCCCCC1)C(=O)N[C@@H](Cc1ccc(OCc2ccccn2)cc1)C(=O)OC(C)(C)C [Example 25, [S-(R*,R*)]-2-{2-[(Azepane-1-carbonyl)-amino]-4-methyl-pentanoylamino}-3-[4-(pyridin-2-ylmethoxy)-phenyl]-propionic acid tert-butyl ester] | – | 5330 | 16 | 1700 | 66 | –
CC(C)C[C@H](NC(=O)N1CCCCCC1)C(=O)N[C@@H](Cc1ccc(OCc2ccncc2)cc1)C(=O)OC(C)(C)C [Example 26, [S-(R*,R*)]-2-{2-[(Azepane-1-carbonyl)-amino]-4-methyl-pentanoylamino}-3-[4-(pyridin-4-ylmethoxy)-phenyl]-propionic acid tert-butyl ester] | – | – | 13 | 3000 | 58 | –
CC(C)C[C@H](NC(=O)N1CCCCCC1)C(=O)N[C@@H](Cc1ccc(C#CC2(O)CCCCC2)cc1)C(=O)NC(C)(C)C [Example 138, [S-(R*,R*)]-Azepane-1-carboxylic acid (1-({-tert-butylcarbamoyl-2-[4-(1-hydroxy-cyclohexylethynyl)-phenyl]-ethylcarbamoyl}-3-methyl-butyl)-amide] | – | – | 31 | 1600 | 17 | –
CC(C)C[C@H](NC(=O)N1CCCCCC1)C(=O)N[C@@H](Cc1ccc(C=Cc2ccccc2)cc1)C(=O)NC(C)(C)C [Example 141, [S-(R*,R*)]-Azepane-1-carboxylic acid {1-[1-tert-butylcarbamoyl-2-(4-styryl-phenyl)-ethylcarbamoyl]-3-methyl-butyl}-amide] | – | – | 18 | 410 | 39 | –
CC(C)C[C@H](NC(=O)N1CCCCCC1)C(=O)N[C@@H](Cc1ccc(OCc2ccccc2)cc1)C(=O)NCCCn1ccnc1 [Example 237, [S-(R*,R*)]-Azepane-1-carboxylic acid {(1-[2-(4-benzyloxy phenyl)-1-(3-imidazol-1-yl-propylcarbamoyl)-ethylcarbamoyl]-3-methyl-butyl}-amide] | – | – | – | 2200 | 79 | –
